Article PMC5884060 (Biochemistry, 2018)

Assays:
[1] = biological target: T1, PDIA1 (Homo sapiens, UniProt P07237); experiment: Insulin turbidity assay; settings: for kinact/KI: 0.5 μM PDIA1, 0.16 mM insulin, 1 mM DTT, varying concentrations and pre-incubation times
[2] = system: PDIA1 C53A and C397A; assay type: binding; settings: from IC50 values; PDIA1 C53A and C397A 50 μg/mL in MCF-7 lysates 1 mg/mL, CA-Rh 8 μM
[3] = system: HEK293^DAX cells; experiment: [35S] metabolic labeling, fraction FTALLC secreted; assay type: cell-based; settings: KSC-34 40 μM added 1 h prior to labeling and throughout
[4] = biological target: T1, PDIA1; settings: MCF-7 cells, KSC-34 5 μM; ~5 in the DMSO control
[5] = biological target: T2, PDIA4 (Homo sapiens, UniProt P13667); settings: HEK293^DAX cells, KSC-34 40 μM, 1 h pre-treatment
[6] = biological target: T1, PDIA1; settings: 5 μM, MCF-7 cells, 3 hours at 37 °C
[7] = system: MCF-7 cells; settings: read-out: EC50 MTT cell viability
[8] = biological target: T1, PDIA1; settings: HEK293^DAX cells, KSC-34 40 μM, 1 h pre-treatment
[9] = system: HEK293^DAX cells stably expressing PDIA1 shRNA; settings: KSC-34 40 μM, ELISA and [35S] metabolic labeling
[10] = system: MCF-7 cells
[11] = biological target: PDIA6 (Homo sapiens, UniProt Q15084); settings: MCF-7 cells, KSC-34 5 μM
[12] = biological target: T3, purified, recombinant PDIA1 (Homo sapiens, UniProt P07237); experiment: In-gel fluorescence: recombinant PDIA1 in the background of MCF-7 cell lysates; assay type: binding; settings: PDIA1 50 μg/mL in MCF-7 cell lysates 1 mg/mL
[13] = system: HEK293^Trex cells stably expressing ^FTALLC; experiment: FTALLC secretion by ELISA; assay type: cell-based; settings: KSC-34 40 μM, 4 h pretreatment, 2 h conditioning, compared to vehicle
[14] = biological target: prostaglandin E synthase 2 (PTGES2) (Homo sapiens, UniProt Q9H7Z7); experiment: Proteome-wide target enrichment, LC/LC-MS/MS spectral counts; settings: MCF-7 cells, KSC-34 5 μM
[15] = system: HEK293^Trex cells stably expressing ^FTALLC; experiment: Viability by Cell Titre Glo; assay type: cell-based; settings: KSC-34 40 μM, Cell Titre Glo after media conditioning
[16] = biological target: T3, purified, recombinant PDIA1; experiment: In-gel fluorescence screen: covalent modification of purified recombinant PDIA1; assay type: binding; settings: compound 5 μM, PDIA1 50 μg/mL, 1 hour, TAMRA in-gel fluorescence
[17] = biological target: PDIA3 (Homo sapiens, UniProt P30101); settings: PDIA3 50 μg/mL, with or without MCF-7 lysates 1 mg/mL
[18] = biological target: PDIA1 C53A (Homo sapiens, UniProt P07237, C53A); settings: KSC-34 5 μM, protein 50 μg/mL, 1 hour
[19] = biological target: endogenous PDIA1 (Homo sapiens, UniProt P07237); experiment: In-gel fluorescence: endogenous PDIA1 in MCF-7 lysates; assay type: binding; settings: compound 5 μM, MCF-7 lysates 2 mg/mL
[20] = system: SKOV-3; experiment: qPCR analysis of UPR target genes; assay type: cell-based; settings: SKOV-3 cells
[21] = system: A549 cells
[22] = biological target: T2, PDIA4; settings: PDIA4 50 μg/mL, with or without MCF-7 lysates 1 mg/mL

T1 sequence (P07237 18-508): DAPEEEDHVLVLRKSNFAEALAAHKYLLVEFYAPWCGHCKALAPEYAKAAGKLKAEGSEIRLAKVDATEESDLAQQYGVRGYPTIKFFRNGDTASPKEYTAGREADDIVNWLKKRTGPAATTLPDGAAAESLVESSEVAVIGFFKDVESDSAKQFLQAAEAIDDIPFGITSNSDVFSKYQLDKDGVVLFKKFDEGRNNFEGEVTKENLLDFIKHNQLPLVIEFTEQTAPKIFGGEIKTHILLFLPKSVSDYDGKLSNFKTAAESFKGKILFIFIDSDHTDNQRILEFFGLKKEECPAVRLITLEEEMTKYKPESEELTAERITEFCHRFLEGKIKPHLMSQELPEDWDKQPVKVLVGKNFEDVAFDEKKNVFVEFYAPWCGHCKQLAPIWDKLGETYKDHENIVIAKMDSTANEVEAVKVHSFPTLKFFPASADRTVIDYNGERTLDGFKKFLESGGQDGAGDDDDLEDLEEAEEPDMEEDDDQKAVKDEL
T3 sequence (P07237 18-508): as above
T2 sequence (P13667 21-645, species assumed): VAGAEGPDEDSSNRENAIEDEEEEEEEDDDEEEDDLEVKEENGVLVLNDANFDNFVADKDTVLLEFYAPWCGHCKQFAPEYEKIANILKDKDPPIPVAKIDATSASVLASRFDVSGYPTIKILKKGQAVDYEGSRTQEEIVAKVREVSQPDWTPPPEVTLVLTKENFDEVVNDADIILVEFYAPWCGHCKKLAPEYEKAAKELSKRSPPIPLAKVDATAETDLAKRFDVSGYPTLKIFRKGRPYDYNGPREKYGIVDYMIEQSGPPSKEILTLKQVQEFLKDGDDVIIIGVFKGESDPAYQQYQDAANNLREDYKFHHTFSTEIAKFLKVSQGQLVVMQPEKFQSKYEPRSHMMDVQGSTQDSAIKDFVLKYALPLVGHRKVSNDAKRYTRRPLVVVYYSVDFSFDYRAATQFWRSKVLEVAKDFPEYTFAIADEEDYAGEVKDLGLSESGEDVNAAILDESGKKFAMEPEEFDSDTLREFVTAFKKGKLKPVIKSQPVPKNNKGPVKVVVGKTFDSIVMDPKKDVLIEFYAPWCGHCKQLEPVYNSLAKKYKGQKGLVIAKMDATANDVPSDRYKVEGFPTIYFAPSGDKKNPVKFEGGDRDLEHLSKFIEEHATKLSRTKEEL
Sequence of endogenous PDIA1 (P07237 18-508): as the sequence (P07237 18-508) above
Sequence of PDIA6 (Q15084 20-440): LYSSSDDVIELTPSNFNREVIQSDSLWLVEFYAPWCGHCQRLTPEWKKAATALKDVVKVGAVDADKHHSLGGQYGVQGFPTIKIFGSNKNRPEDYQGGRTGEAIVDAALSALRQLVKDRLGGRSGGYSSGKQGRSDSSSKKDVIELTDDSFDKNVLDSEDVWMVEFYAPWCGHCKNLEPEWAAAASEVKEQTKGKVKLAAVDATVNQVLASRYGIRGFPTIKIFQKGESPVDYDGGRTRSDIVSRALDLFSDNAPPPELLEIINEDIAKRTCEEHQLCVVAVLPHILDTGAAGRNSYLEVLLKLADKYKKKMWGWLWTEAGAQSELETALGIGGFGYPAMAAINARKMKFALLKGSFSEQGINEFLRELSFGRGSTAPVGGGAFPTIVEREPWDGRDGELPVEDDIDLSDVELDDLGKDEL
Sequence of prostaglandin E synthase 2 (PTGES2) (Q9H7Z7 whole entry): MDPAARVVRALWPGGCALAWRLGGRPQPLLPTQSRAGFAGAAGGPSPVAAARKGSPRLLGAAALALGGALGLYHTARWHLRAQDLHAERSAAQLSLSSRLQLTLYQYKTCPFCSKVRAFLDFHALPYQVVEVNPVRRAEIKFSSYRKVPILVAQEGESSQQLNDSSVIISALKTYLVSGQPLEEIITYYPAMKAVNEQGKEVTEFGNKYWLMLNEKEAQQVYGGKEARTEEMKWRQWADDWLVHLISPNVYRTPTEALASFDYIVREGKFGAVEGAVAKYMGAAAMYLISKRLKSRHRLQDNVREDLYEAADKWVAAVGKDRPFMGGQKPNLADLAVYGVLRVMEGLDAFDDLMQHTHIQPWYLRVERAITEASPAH
Sequence of PDIA1 C53A (P07237 18-508 C53A): as the sequence (P07237 18-508) above, with C36A counted along it
Sequence of PDIA3 (P30101 25-505, species assumed): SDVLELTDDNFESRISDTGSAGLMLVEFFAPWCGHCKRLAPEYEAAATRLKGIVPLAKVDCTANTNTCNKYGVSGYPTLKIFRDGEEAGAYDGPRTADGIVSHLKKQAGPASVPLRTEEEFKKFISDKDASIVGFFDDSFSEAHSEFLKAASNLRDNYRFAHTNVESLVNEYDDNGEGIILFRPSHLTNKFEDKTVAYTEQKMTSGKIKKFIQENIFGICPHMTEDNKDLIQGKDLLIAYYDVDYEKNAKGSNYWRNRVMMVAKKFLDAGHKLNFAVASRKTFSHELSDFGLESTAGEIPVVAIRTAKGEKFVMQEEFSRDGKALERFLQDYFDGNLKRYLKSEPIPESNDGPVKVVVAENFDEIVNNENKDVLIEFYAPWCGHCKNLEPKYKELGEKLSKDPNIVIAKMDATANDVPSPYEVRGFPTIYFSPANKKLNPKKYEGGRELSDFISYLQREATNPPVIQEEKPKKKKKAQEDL

With 16F16 [reference compound] the kinact/KI [1] was 252 M⁻¹ s⁻¹ and the “selectivity for the a domain over the a′ domain” value [2] was 2 fold.

C#CCNc1nc(NCCNC(=O)CCl)nc(N(C)CCCCc2ccccc2)n1 [KSC-34] was tested, and the “reduction of fraction of [35S]-labeled FTALLC secreted” value [3] was 30%, the “average spectral counts matched to PDIA1” value [4] was ~ 2000 spectral counts and the “interaction of PDIA4 with FTALLC (co-IP)” value [5] was “does not influence the interaction between these proteins”. The “potency of PDIA1 modification in living cells compared to RB-11-ca” value [6] was ~ 8 fold, the EC50 [7] was 82 µM and the “interaction of PDIA1 with FTALLC (co-IP)” value [8] was “disrupted this interaction”. The “KSC-34-dependent reduction in FTALLC secretion upon depletion of PDIA1” value [9] was “attenuated”, the “timeframe of IRE1α activation” value [10] was under 6 h and the “activation of the PERK and ATF6 arms of the UPR” value ([10]; 4–40 μM, 3 hours at 37 °C) was “no significant activation”. For the same compound, the “increase in SEC24D and ERDJ4 mRNA levels” value ([10]; >20 μM KSC-34, 3 hours, relative to DMSO) was ~ 2 fold, the “spectral counts PDIA6” value [11] was ~ 20 spectral counts and the “covalent modification of PDIA1 relative to RB-11-ca” value [12] was “equal or greater potency to RB-11-ca”. The “reduction of FTALLC levels in conditioned media” value [13] was 40%, the “average spectral counts PTGES2” value [14] was ~ 120 spectral counts and the “reduction in cellular viability” value [15] was 20%. For the same compound, the “covalent modification of PDIA1 relative to RB-11-ca” value [16] was “equal or greater potency compared to RB-11-ca”, the “labeling of PDIA3” value [17] was “absence of fluorescence” and the “labeling of PDIA1 C53A” value [18] was “absence of fluorescence”. The kinact/KI [1] was 9660 M⁻¹ s⁻¹, the “potency (kinact/KI) relative to RB-11-ca” value ([1]; insulin turbidity assay) was ~ 3 fold and the “covalent modification of endogenous PDIA1 relative to RB-11-ca” value [19] was “equal or greater potency toward PDIA1 compared to RB-11-ca”. For the same compound, the “effect on IRE1α-dependent UPR transcripts” value [20] was “no significant effects”, the “effect on IRE1α-dependent UPR transcripts” value [21] was “no significant effects” and the “selectivity for the a domain over the a′ domain” value [2] was 30 fold. For the same compound, the “labeling of PDIA4” value [22] was “absence of fluorescence”.
